According to article PMC6978363, “Chaperone mediated detection of small molecule target binding in cells” (Nature Communications, 2020):

Key:
Test in all cases: biochemical
[1] = biological target: DYRK1B (Homo sapiens, UniProt Q9Y463)
Excerpt: (§1) The detection of EGFR (another HER family member) was ambiguous because the peptides used to detect it were also present in ERBB2.

[2] = biological target: LTK (Homo sapiens, UniProt P29376)
Excerpt: as §1

[3] = biological target: T1, CaMKII_beta (Homo sapiens, UniProt Q13554); conditions: read-out: % Inhibition (at 10mM)
T1 construct: gene CAMK2B

[4] = biological target: T2, PRKAA2_B1_G2 (Homo sapiens, UniProt P54646); conditions: read-out: % Inhibition (at 10mM)
T2 construct: gene PRKAA2

[5] = biological target: T3, PKC_delta (Homo sapiens, UniProt Q05655); conditions: read-out: % Inhibition (at 10mM)
T3 construct: gene PRKCD

[6] = biological target: PAK3 (Homo sapiens, UniProt O75914); conditions: read-out: % Inhibition (at 10mM)
[7] = biological target: T4, PKD2 (Homo sapiens, UniProt Q9BZL6); conditions: read-out: % Inhibition (at 10mM)
T4 construct: gene PRKD2

[8] = biological target: T5, Brk (Homo sapiens, UniProt Q13882); conditions: read-out: % Inhibition (at 10mM)
T5 construct: gene PTK6

[9] = biological target: SBK1 (Homo sapiens, UniProt Q52WX2); conditions: read-out: % Inhibition (at 10mM)
[10] = biological target: IGF1R (Homo sapiens, UniProt P08069); conditions: read-out: % Inhibition (at 10mM)
[11] = biological target: BTK (Homo sapiens, UniProt Q06187); conditions: read-out: % Inhibition (at 10mM)
[12] = biological target: GRK5 (Homo sapiens, UniProt P34947); conditions: read-out: % Inhibition (at 10mM)
[13] = biological target: T6, IKK_beta (Homo sapiens, UniProt O14920); conditions: read-out: % Inhibition (at 10mM)
T6 construct: gene IKBKB

[14] = biological target: T7, PKC_alpha (Homo sapiens, UniProt P17252); conditions: read-out: % Inhibition (at 10mM)
T7 construct: gene PRKCA

[15] = biological target: PRKAA1 (Homo sapiens, UniProt Q13131); conditions: read-out: % Inhibition (at 10mM)
[16] = biological target: T8, Rse (Homo sapiens, UniProt Q06418); conditions: read-out: % Inhibition (at 10mM)
T8 construct: gene TYRO3

[17] = biological target: T9, LynB (Homo sapiens, UniProt P07948); conditions: read-out: % Inhibition (at 10mM)
T9 construct: gene LYN; isoform B

[18] = biological target: T10, p70S6Kb (Homo sapiens, UniProt Q9UBS0); conditions: read-out: % Inhibition (at 10mM)
T10 construct: gene RPS6KB2

[19] = biological target: T11, PDGFR_alpha (Homo sapiens, UniProt P16234); conditions: read-out: % Inhibition (at 10mM)
T11 construct: gene PDGFRA

[20] = biological target: PLK1 (Homo sapiens, UniProt P53350); conditions: read-out: % Inhibition (at 10mM)
[21] = biological target: SGK3 (Homo sapiens, UniProt Q96BR1); conditions: read-out: % Inhibition (at 10mM)
[22] = biological target: T12, YSK4 (Homo sapiens, UniProt Q56UN5); conditions: read-out: % Inhibition (at 10mM)
T12 construct: gene MAP3K19

[23] = biological target: T13, CK1_gamma1 (Homo sapiens, UniProt Q9HCP0); conditions: read-out: % Inhibition (at 10mM)
T13 construct: gene CSNK1G1

[24] = biological target: SRPK1 (Homo sapiens, UniProt Q96SB4); conditions: read-out: % Inhibition (at 10mM)
[25] = biological target: T14, CK1_alpha1L (Homo sapiens, UniProt Q8N752); conditions: read-out: % Inhibition (at 10mM)
T14 construct: gene CSNK1A1L

[26] = biological target: T15, p38_beta (Homo sapiens, UniProt Q15759); conditions: read-out: % Inhibition (at 10mM)
T15 construct: gene MAPK11

[27] = biological target: T16, eEF-2K (Homo sapiens, UniProt O00418); conditions: read-out: % Inhibition (at 10mM)
T16 construct: gene EEF2K

[28] = biological target: T17, YSK1 (Homo sapiens, UniProt O00506); conditions: read-out: % Inhibition (at 10mM)
T17 construct: gene STK25

[29] = biological target: Fer (Homo sapiens, UniProt P16591); conditions: read-out: % Inhibition (at 10mM)
[30] = biological target: HIPK3 (Homo sapiens, UniProt Q9H422); conditions: read-out: % Inhibition (at 10mM)
[31] = biological target: T18, ERK5 (Homo sapiens, UniProt Q13164); conditions: read-out: % Inhibition (at 10mM)
T18 construct: gene MAPK7

[32] = biological target: ROCK1 (Homo sapiens, UniProt Q13464); conditions: read-out: % Inhibition (at 10mM)
[33] = biological target: T19, PKC_beta1 (Homo sapiens, UniProt P05771); conditions: read-out: % Inhibition (at 10mM)
T19 construct: gene PRKCB; isoform beta1

[34] = biological target: JAK2 (Homo sapiens, UniProt O60674); conditions: read-out: % Inhibition (at 10mM)
[35] = biological target: T20, CK2_alpha1 (Homo sapiens, UniProt P68400); conditions: read-out: % Inhibition (at 10mM)
T20 construct: gene CSNK2A1

[36] = biological target: T21, Tie2 (Homo sapiens, UniProt Q02763); conditions: read-out: % Inhibition (at 10mM)
T21 construct: gene TEK

[37] = biological target: T22, GCK (Homo sapiens, UniProt Q12851); conditions: read-out: % Inhibition (at 10mM)
T22 construct: gene MAP4K2

SGK3, sequence (Q96BR1 whole entry): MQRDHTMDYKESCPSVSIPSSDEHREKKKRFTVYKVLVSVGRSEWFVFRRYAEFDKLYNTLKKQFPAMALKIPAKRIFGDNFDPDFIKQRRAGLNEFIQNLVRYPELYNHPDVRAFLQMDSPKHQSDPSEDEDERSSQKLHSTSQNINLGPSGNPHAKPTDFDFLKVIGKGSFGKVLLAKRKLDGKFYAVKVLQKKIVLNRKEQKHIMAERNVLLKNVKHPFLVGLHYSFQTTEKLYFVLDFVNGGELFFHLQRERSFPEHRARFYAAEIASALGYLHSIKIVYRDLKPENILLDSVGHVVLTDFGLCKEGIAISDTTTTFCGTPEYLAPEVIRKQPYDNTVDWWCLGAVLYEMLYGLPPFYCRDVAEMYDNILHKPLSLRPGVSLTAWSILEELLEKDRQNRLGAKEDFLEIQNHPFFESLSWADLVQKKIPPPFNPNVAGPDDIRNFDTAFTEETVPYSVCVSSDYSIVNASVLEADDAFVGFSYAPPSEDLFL
T8 sequence (Q06418 whole entry): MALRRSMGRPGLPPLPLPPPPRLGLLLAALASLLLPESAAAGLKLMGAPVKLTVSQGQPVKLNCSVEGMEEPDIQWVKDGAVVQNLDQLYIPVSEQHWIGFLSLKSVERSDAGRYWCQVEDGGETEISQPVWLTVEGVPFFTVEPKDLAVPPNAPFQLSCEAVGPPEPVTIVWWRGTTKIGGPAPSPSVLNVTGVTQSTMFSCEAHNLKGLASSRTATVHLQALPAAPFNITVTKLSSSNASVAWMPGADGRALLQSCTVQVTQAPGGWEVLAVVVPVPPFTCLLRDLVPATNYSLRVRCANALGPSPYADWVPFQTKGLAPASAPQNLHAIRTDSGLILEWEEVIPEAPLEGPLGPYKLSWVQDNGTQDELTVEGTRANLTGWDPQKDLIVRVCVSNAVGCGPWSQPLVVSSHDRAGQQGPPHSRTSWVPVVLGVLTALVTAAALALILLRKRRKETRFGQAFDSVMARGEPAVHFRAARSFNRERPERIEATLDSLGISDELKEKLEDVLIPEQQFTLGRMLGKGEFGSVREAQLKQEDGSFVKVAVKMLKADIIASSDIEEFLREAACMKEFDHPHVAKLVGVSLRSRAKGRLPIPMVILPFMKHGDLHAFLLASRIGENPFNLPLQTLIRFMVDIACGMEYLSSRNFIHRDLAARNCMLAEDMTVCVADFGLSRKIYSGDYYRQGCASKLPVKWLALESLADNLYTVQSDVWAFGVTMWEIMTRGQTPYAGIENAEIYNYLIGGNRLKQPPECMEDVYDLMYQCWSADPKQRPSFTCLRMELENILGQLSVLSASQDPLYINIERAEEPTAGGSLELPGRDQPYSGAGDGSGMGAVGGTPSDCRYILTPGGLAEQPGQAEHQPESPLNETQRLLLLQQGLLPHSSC
T13 sequence (Q9HCP0 whole entry): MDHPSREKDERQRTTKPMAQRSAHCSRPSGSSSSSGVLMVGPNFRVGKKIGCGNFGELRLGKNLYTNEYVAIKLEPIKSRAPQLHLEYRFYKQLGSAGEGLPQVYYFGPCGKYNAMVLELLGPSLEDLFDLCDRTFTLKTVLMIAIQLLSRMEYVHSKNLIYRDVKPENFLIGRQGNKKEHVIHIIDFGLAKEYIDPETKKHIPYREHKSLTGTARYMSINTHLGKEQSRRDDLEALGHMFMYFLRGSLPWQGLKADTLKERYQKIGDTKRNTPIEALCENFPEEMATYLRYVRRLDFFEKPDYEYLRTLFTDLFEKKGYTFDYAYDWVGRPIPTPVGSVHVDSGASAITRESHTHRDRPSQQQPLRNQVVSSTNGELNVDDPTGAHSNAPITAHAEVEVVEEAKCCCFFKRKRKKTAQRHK
PRKAA1, sequence (Q13131 whole entry): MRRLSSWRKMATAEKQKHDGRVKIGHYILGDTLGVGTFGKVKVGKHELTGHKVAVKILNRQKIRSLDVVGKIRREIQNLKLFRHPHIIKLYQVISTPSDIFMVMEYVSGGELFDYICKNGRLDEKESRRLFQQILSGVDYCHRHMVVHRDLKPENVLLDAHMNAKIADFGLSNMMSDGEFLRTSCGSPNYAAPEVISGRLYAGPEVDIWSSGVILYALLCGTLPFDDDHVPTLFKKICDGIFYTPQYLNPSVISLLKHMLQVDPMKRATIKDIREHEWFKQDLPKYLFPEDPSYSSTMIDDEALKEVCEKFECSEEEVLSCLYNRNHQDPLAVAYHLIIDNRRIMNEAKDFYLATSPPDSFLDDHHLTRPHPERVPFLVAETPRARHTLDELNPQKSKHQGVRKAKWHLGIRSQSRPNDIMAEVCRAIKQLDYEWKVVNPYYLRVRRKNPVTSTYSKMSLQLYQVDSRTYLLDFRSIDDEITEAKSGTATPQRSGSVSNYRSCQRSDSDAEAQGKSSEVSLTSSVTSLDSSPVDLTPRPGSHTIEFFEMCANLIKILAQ
PRKAA1, sequence (P54619 whole entry partner): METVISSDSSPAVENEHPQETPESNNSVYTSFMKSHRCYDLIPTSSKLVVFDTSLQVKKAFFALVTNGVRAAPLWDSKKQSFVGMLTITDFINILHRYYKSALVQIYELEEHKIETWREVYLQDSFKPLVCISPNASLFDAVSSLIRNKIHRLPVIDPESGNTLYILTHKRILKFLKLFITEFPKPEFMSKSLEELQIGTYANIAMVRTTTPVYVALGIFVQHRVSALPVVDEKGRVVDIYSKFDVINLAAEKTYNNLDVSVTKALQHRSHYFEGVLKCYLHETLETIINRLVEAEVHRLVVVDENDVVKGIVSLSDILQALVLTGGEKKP
PRKAA1, sequence (Q9Y478 whole entry partner): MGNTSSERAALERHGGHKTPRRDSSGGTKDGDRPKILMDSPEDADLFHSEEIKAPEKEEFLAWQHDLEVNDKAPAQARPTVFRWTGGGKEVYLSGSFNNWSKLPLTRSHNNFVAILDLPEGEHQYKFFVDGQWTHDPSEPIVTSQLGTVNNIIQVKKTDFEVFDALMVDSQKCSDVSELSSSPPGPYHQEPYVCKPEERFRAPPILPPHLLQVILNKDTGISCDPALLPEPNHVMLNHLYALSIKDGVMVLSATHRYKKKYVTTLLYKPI
T17 sequence (O00506 whole entry): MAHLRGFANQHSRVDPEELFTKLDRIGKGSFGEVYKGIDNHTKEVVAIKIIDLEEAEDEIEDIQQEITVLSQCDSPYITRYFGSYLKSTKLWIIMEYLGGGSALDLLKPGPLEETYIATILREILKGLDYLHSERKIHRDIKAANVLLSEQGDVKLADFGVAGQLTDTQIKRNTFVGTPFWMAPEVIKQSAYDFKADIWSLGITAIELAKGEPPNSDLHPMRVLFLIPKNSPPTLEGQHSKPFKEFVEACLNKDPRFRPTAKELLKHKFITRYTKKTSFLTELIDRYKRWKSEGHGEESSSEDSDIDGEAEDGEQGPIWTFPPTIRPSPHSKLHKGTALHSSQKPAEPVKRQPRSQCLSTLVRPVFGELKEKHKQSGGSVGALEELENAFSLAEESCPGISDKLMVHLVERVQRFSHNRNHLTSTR
T11 sequence (P16234 whole entry): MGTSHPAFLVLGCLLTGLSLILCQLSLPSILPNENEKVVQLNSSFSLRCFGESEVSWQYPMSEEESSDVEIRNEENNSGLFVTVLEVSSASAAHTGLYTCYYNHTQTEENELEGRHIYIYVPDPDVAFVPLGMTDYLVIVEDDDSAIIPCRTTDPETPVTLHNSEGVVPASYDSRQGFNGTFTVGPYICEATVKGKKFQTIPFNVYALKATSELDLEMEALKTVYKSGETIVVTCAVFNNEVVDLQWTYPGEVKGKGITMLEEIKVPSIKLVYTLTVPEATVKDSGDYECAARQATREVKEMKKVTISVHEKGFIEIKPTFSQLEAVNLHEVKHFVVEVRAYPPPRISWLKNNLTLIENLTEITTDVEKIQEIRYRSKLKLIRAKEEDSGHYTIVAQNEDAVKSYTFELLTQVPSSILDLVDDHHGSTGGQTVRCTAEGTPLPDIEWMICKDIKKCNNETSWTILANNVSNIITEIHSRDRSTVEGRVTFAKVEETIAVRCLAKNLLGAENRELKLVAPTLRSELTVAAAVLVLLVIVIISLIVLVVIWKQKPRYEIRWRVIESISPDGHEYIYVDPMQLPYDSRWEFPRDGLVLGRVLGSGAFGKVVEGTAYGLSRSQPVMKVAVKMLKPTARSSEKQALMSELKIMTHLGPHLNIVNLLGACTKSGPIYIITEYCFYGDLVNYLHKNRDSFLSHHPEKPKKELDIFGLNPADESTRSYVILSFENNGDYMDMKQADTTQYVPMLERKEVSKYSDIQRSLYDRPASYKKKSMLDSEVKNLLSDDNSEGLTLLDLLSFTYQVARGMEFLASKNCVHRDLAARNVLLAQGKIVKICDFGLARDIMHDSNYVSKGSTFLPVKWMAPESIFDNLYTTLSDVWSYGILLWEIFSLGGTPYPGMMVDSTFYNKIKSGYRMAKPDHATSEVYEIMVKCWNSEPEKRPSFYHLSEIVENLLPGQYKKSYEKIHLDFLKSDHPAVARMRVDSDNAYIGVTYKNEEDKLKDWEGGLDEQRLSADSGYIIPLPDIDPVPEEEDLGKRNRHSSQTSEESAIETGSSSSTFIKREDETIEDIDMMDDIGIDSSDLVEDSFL
SBK1, sequence (Q52WX2 whole entry): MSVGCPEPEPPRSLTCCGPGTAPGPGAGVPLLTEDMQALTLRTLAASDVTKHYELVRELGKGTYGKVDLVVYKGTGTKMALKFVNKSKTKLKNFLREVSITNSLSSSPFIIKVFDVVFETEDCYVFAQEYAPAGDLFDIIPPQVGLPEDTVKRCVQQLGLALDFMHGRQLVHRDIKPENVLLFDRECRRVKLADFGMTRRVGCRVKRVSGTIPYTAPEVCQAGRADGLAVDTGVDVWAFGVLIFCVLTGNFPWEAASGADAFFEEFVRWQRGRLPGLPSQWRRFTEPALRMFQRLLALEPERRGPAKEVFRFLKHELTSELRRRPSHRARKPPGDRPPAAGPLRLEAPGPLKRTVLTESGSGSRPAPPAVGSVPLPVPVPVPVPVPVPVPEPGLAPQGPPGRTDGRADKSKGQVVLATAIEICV

What does the source list for `CC(C)(O)CC(=O)NCCn1ccc2ncnc(Nc3ccc(Oc4cccc(C(F)(F)F)c4)c(Cl)c3)c21` [TAK-285]?
inhibition at 10 µM [1]: 3%; inhibition at 10 µM [2]: 0.5%; inhibition [3]: 24.5%; inhibition [4]: 4.5%; inhibition [5]: 15.5%; inhibition [6]: 12%; inhibition [7]: 80.5%; inhibition [8]: 65%; inhibition [9]: 8.5%; inhibition [10]: 5%; inhibition [11]: 36%; inhibition [12]: -4.5%; inhibition [13]: -0.5%; inhibition [14]: 13.5%; inhibition [15]: 6%; inhibition [16]: 10.5%; inhibition [17]: 37%; inhibition [18]: 2.5%; inhibition [19]: 1.5%; inhibition [20]: 8%; inhibition [21]: 2%; inhibition [22]: 1%; inhibition [23]: 2.5%; inhibition [24]: 10.5%; inhibition [25]: 3%; inhibition [26]: 1%; inhibition [27]: 7%; inhibition [28]: 5.5%; inhibition [29]: 12.5%; inhibition [30]: 0%; inhibition [31]: 0.5%; inhibition [32]: -1.5%; inhibition [33]: 5%; inhibition [34]: 2%; inhibition [35]: -2.5%; inhibition [36]: -6%; inhibition [37]: 6.5%
